For the test, the system named is Trypanosoma brucei growth inhibition. The test can be described thus: T. brucei growth inhibition (AID 1159557).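 Further: parasites exposed to compound for 48 h before the resazurin readout.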

Activity calls are given as the source filed them. How the calls were made is not given here.

Regarding `CNc1cc(Cn2c(C(=O)c3cc(C)cc(Cl)c3)c(C(C)C)c(=O)[nH]c2=O)ccn1`, the IC50 was 25 µM. Take `O=C(c1ccc(Cl)cc1)c1ccc(OC(=O)N2CCOCC2)cc1`: the concentration for half-maximal inhibition (IC50) is 7.9 µM. To `O=C(Nc1ncc([N+](=O)[O-])s1)C1CC1` belongs 7.9 µM. The same measure for `Cn1c(CC(=O)NNC(=O)c2ccc3ccccc3n2)nc2ccccc21`: 7.9 µM; for `CC(c1ccccn1)N(C)Cc1nc2ccccc2n1C(C)C` (centres undefined): 13 µM; for `CCn1nccc1CN(C)C(=O)C=Cc1ccc(Cl)cc1`: 32 µM. As for `CCn1c(NC(=O)Cc2ccc(F)cc2)nc2ccccc21`, the half-inhibitory concentration (IC50) is 3.2 µM. Turning to `CC(C)(C)CC(=O)NCCc1csc(-c2ccc(F)cc2)n1`, the IC50 is 0.63 µM. `N#Cc1cccc(Cc2cc(Nc3cc(C4CC4)[nH]n3)nc(N3CC[C@H]3C(N)=O)n2)c1`: the IC50 was 0.04 µM.

With `Cc1c(C(C)NC(=O)Nc2cccc(Cl)c2)sc2ncnn12` (centres undefined), the 50% inhibitory concentration (IC50) is 20 µM.

For `CCc1cccc(CC)c1-n1c(SCC(=O)N2CC(=O)Nc3ccccc32)nnc1-c1cccnc1`, the IC50 was 0.5 µM. The same measure for `O=C(Nc1cccc(S(=O)(=O)Nc2ccc(Br)cc2)c1)c1ccc([N+](=O)[O-])s1`: 0.2 µM. With `O=C(N[C@H](CO)c1ccccc1)c1ccc(-c2c[nH]c3nccc(C(F)(F)F)c23)s1`, the IC50 is 0.16 µM. To `COc1ccc(C(=O)N2CCC(Nc3cccnc3)C2)c(OC)n1` (centres undefined) belongs > 40 µM (inactive); to `N#Cc1ccc(C(=O)Nc2cccc(-c3cccc(CN4CCC(O)CC4)c3)c2)cc1`, 0.79 µM; to `CCN(CC)S(=O)(=O)c1ccc(C)c(NC(=O)c2cc(Cl)c3c(c2)OCO3)c1`, 0.32 µM. Take `COc1ccc2ncc(Cl)c(CCN3CC[C@@H](NCc4cc5c(cn4)OCS5)[C@H](O)C3)c2n1`: the IC50 is 0.32 µM.

Turning to `Cc1ccc(Nc2nc(N)nc(CNC(c3nc4ccccc4[nH]3)C(C)C)n2)cc1` (centres undefined), the IC50 is 7.9 µM. The same measure for `CCCN(Cc1ccc(OC)c(OC)c1)Cc1cc(=O)c2c(C)cc(C)cc2[nH]1`: 25 µM.

For the compound `COc1ccc(C2C3CCCCC3(O)CCN2CC(=O)Nc2ccc(Cl)cc2Cl)cc1` (centres undefined), the IC50 is 7.9 µM. Consider `CCN(CC)S(=O)(=O)c1ccc(C(=O)Nc2cc(C)nn2-c2nc(C)c(C)c(=O)[nH]2)cc1`, for which the concentration for half-maximal inhibition (IC50) was 0.32 µM. To `CNc1cncc(C2CCCN2C(=O)Cc2coc3cc(C)ccc23)n1` (centres undefined) belongs > 40 µM (inactive); to `O=C(NC1C(=O)N(c2ccccc2)C1c1cccnc1)c1ccc(Cl)s1` (centres undefined), > 40 µM (inactive).

For the compound `O=C(NCCc1ccn(-c2ccccc2)n1)C1CCCCC1`, the half-inhibitory concentration (IC50) is 0.25 µM. To `Cc1cc(N(C)C)nc(Nc2ccccc2C)n1` belongs 32 µM; to `CCCCn1nnnc1CSc1nc(C)cc(C)c1C#N`, > 40 µM (inactive). The same measure for `O=C(CN(c1cccc(C(F)(F)F)c1)S(=O)(=O)c1ccc(Cl)cc1)NCc1ccc(F)c(F)c1`: 10 µM; for `CNc1cncc(C2CCCN2C(=O)Cc2ccc3ccccc3c2)n1` (centres undefined): > 40 µM (inactive). To `Cc1ccc(S(=O)(=O)Nc2ccc(CN3CCN(C(=O)c4cccc(C)c4)CC3)cc2)cc1` belongs 0.25 µM; to `CC(C)c1cc(C(=O)N2CCCC(c3cc4ncccc4[nH]3)C2)on1` (centres undefined), > 40 µM (inactive). Turning to `Fc1ccccc1N1C[C@H]2CCN(c3cccnc3)C[C@H]2C1`, the IC50 is 32 µM. Turning to `CC(=O)Nc1ccc(-c2noc(CC3CCCN(Cc4cccc(F)c4C)C3)n2)cc1` (centres undefined), the half-maximal inhibitory concentration (IC50) was 20 µM. The same measure for `Cn1ccnc1CN1CCc2[nH]cnc2C1c1ccccc1OCc1ccccc1` (centres undefined): 0.4 µM. `Cc1sc(C)c(C(F)(F)F)c1CNCCCNc1cc(=O)c2ccccc2[nH]1`: the IC50 is 0.01 µM. Consider `Cc1[nH]nc(Nc2ccnc3[nH]ccc23)c1C`, for which the half-maximal inhibitory concentration (IC50) was 0.13 µM. In the case of `CC(C)c1cc(Nc2cc(Cc3ccccc3)nc(NC3CCC(O)CC3)n2)n[nH]1` (centres undefined), the half-inhibitory concentration (IC50) is 0.079 µM. As for `CC(=O)NCCNc1cc(-c2ccnc(Nc3cccc(Cl)c3)n2)ccn1`, the concentration for half-maximal inhibition (IC50) was 0.2 µM. To `COc1ccc(NS(=O)(=O)c2cc(-c3cc(C)[nH]n3)ccc2C)cc1OC` belongs 0.32 µM; to `CC1CCCN(S(=O)(=O)c2ccc(C(=O)Nc3nc(-c4ccccn4)cs3)cc2)C1` (centres undefined), 0.2 µM. For the compound `O=c1ccc2ccc(F)c3c2n1C[C@H]3CN1CCN(CC(O)c2cc3c(cn2)OCS3)CC1` (some centres undefined), the IC50 was 0.2 µM. To `Cc1ccc(NC(=O)c2ccc([N+](=O)[O-])s2)cc1S(=O)(=O)N1CCOCC1` belongs 0.25 µM. To `CCS(=O)(=O)c1cccc(C(=O)Nc2nc(-c3ccccn3)cs2)c1` belongs 0.5 µM; to `CCN(CC)c1nc(Nc2ccncc2)nc2ccccc12`, 2.5 µM; to `O=C1CCCCCC1(Cc1cnc[nH]1)c1ccc(Cl)cc1Cl` (centres undefined), > 40 µM (inactive). Consider `N#Cc1cc(N2CCCC2=O)ccc1Sc1ccccc1CO`, for which the IC50 is 40 µM. With `CCc1cccc(-n2nc(OCC(=O)NC3CCCC3)c3cccnc32)c1`, the IC50 was > 40 µM (inactive). Take `CN(Cc1nc2c(C(=O)N3CCN(Cc4ccccc4)CC3)cccc2[nH]1)C1CCCc2cccnc21` (centres undefined): the IC50 is 0.63 µM.

Regarding `CS(=O)(=O)c1ccccc1C(=O)N(Cc1ccccc1)c1ccccc1`, the half-inhibitory concentration (IC50) is 0.4 µM. To `Cc1ccc2c(c1)SC(C(=O)Nc1n[nH]c(-c3ccccn3)n1)C2` (centres undefined) belongs 4 µM; to `CN1CCCN(C(=O)c2ccc(N3CCCC3)cc2Cl)CC1`, > 40 µM (inactive); to `CNC(=O)Oc1ccc(C(=O)NCc2ccccc2)cc1OC(=O)NC`, 0.13 µM. The same measure for `COCCn1cnc2cc(NC(=O)C3CCCCC3)cc(C(=O)N3CCc4sccc4C3)c21`: 0.79 µM. On to `CS(=O)(=O)c1cccc(-c2cnc(N)c3c(-c4ccc(CO)cc4)csc23)c1`, for which the concentration for half-maximal inhibition (IC50) is 2 µM. In the case of `Cc1ccccc1CNC(=O)CN(Cc1ccccn1)Cc1ccccn1`, the concentration for half-maximal inhibition (IC50) was 6.3 µM. To `CCCCN(C(=O)c1ccc(NC(=O)C(C)C)cc1)c1ccccc1` belongs 16 µM; to `Cc1ccccc1NS(=O)(=O)c1ccc2[nH]cc(C(=O)NC3CCCC(C)C3C)c(=O)c2c1` (centres undefined), 0.32 µM. For `c1ccc(-c2nc(NCc3ccco3)c3ccccc3n2)nc1`, the IC50 was > 40 µM (inactive). The same measure for `CC(C)Nc1nccc(-c2c(-c3ccc(F)cc3)ncn2C2CCOCC2)n1`: 5 µM.

Regarding `O=C(CN1CCC2(O)CCCCC2C1c1ccc2c(c1)OCO2)Nc1ccc(Cl)cc1Cl` (centres undefined), the half-maximal inhibitory concentration (IC50) is 13 µM. Take `Cc1nn(-c2ccccc2)nc1CNC(=O)CN(Cc1ccccn1)Cc1ccccn1`: the IC50 was 32 µM. To `CCN(CC)c1nc(N(C)C)nc2c1CN(Cc1ccccc1)CC2` belongs 20 µM; to `O=c1ccc2ccc(F)c3c2n1C[C@H]3CN1CCC(NCc2cc3ccccc3o2)CC1`, 0.63 µM. Regarding `COc1ccc2ncc(=O)n(CCN3CCOC(CNCc4ccc(C(F)(F)F)cc4F)C3)c2n1` (centres undefined), the concentration for half-maximal inhibition (IC50) was 0.63 µM.

For the compound `COc1cccc(-c2cc(C(F)(F)F)nc(-n3ccc([N+](=O)[O-])n3)n2)c1`, the 50% inhibitory concentration (IC50) is 32 µM. As for `COc1ccc(-c2ccc3nnc(-c4ccc(O)c(OC)c4)n3c2)cn1`, the IC50 is 2 µM. For `COc1cc(Nc2nccc(Nc3onc(C)c3C)n2)cc(S(=O)(=O)C2CCOCC2)c1`, the concentration for half-maximal inhibition (IC50) is 0.5 µM.

Take `CCN(Cc1nc2ccc(C(=O)N3CCN(c4ncccn4)CC3)cc2[nH]1)C1CCCc2cccnc21` (centres undefined): the IC50 was 2.5 µM. The same measure for `O=C(CC1(O)C(=O)N(Cc2ccccc2)c2ccc(Br)cc21)c1cccnc1` (centres undefined): 0.63 µM; for `O=C(Nc1ccc(Br)cn1)c1ccc(Cn2cnc([N+](=O)[O-])n2)cc1`: 1.6 µM. In the case of `O=C(Cc1ccc2c(c1)CCC2)Nc1n[nH]c(-c2ccccn2)n1`, the IC50 was 20 µM. To `CCCCCNC(=O)c1c[nH]c2ccc(S(=O)(=O)N(C)c3ccc(OCC)cc3)cc2c1=O` belongs 0.32 µM; to `CCNc1cc(-c2ccccn2)nc(Nc2ccc(OC)cc2)n1`, 13 µM; to `CC(C)n1c(-c2nonc2N)nc2cccc(OCCN3CCCC3)c21`, 0.79 µM. The same measure for `CCS(=O)(=O)Nc1ccc(C2=NN(C(=O)c3cccs3)C(c3ccccc3OC)C2)cc1` (centres undefined): 5 µM; for `OC[C@@H](Nc1nccc(-c2c(-c3ccc(F)cc3)ncn2C2CCNCC2)n1)c1ccccc1`: 0.4 µM; for `COc1ccc(CN2CCCCC2c2nc(-c3cccnc3)no2)cc1` (centres undefined): > 40 µM (inactive). Regarding `COc1ccc(C(=O)Nc2c(C)nn(COc3cccc(C(F)(F)F)c3)c2C)cc1`, the concentration for half-maximal inhibition (IC50) is 0.79 µM. The same measure for `Nc1cc(-c2ccc3ncnc(N4CCOCC4)c3c2)cnc1N`: 0.05 µM. The same measure for `COc1ccnc2[nH]cc(-c3cc(C(=O)N[C@H](CO)c4ccccc4)co3)c12`: 0.005 µM; for `NCC(Cc1ccccc1)NC(=O)c1cnc(-c2c[nH]c3ncccc23)s1` (centres undefined): 0.4 µM.

`CC(C)(C)c1cc(NC2CC2)nc(-c2ccccn2)n1`: the concentration for half-maximal inhibition (IC50) was 7.9 µM. With `C=CCn1nc([N+](=O)[O-])nc1Oc1ccc(Cl)cc1Cl`, the concentration for half-maximal inhibition (IC50) was 20 µM. The same measure for `O=C1CN(C(=O)c2cccc(Nc3ncc(-c4ccc5c(c4)OCO5)cn3)c2)CCN1`: > 50 µM (inactive). The same measure for `OC1CCC(Nc2nccc(-c3sc(C4CCOCC4)nc3-c3ccc(F)c(F)c3)n2)CC1` (centres undefined): 2 µM. The same measure for `O=C(COc1nn(-c2ccccc2)c2ncccc12)NCc1ccccc1`: > 40 µM (inactive). On to `Nc1nonc1-c1nc2cncc(C(=O)N3CC[C@H](N)C3)c2n1CC1CC1`, for which the IC50 is 0.63 µM. Regarding `Cn1c(CN2CCN(c3ncc(C(F)(F)F)cc3Cl)CC2)nc2ccncc21`, the IC50 was 6.3 µM.

For the compound `CNS(=O)(=O)c1ccccc1Nc1nc(Nc2ccnn2C)ncc1Cl`, the 50% inhibitory concentration (IC50) is 0.063 µM. On to `CC(Cn1ccnc1)NC(=O)C=Cc1ccc(Cl)cc1` (centres undefined), for which the IC50 was > 40 µM (inactive).

Regarding `O=c1[nH]ccc2ccc(-c3ccncc3)cc12`, the IC50 was 32 µM. As to `COc1ccc2nccc([C@H](O)CN3CC[C@H](NC(=O)c4ccc(Br)cc4)[C@@H](O)C3)c2n1`, the IC50 is 0.2 µM. With `CC(C)(C)Nc1nc(Nc2ccc3c(c2)CS(=O)(=O)C3)nc2[nH]ccc12`, the IC50 is 0.79 µM. Regarding `CNc1cc(C)nc(C2CN(C(=O)c3n[nH]c4ccccc34)CCO2)c1` (centres undefined), the IC50 was 20 µM. The same measure for `CCOc1ccc(NC(=O)C=Cc2ccc(CC)o2)cc1`: 16 µM.

Usually IC50 stands for the concentration that gives 50% inhibition.
